US4536518A, “Antidepressant derivatives of cis-4-phenyl-1,2,3,4-tetrahydro-1-naphthalenamine” (priority 1979, dated 1985)
Counter-ions that a name gives are not always drawn. Like-named read-outs stand apart in the source and are kept apart here.

Experiments:
[1] = tested on: Behavioral Despair in mice; test: Reduction of behavioral despair in vivo (modified Porsolt method); set-up: species or system mouse (Swiss-Webster CD); details: for ED50: Mus musculus, sc, mice, subcutaneous
Description: A modification of the procedure described by Porsolt et al., Arch. Int. […] (Charles River Laboratories, Inc.; Wilmington, Mass.) were housed under standard laboratory conditions for at least one week prior to experimentation. Groups of 10 mice were then injected subcutaneously with either a given dosage of the named test compound or vehicle (5% Emulphor: 5% ethanol: 90% normal saline). One hour later the mice were placed individually in 1 liter beakers containing 7 cm. of 25° C. water. Beginning at 2 min. after immersion, each mouse was observed every 30 sec. for the presence of immobility, characterized as floating motionless in the water. A total of ten observations were made, each being scored as "0=animal moving, swimming, attempting to escape" or "1=animal immobile". The number of positive observations for each mouse was then totaled and a mean immobility score calculated for the group of ten.

[2] = tested on: Synaptosomal Uptake of Norepinephrine (NE), rat hypothalmus; test: Blockade of synaptosomal uptake of norepinephrine (NE) in vitro; format: biochemical, rat (Sprague-Dawley CD)
Description: (§1) Sprague-Dawley CD male rats weighing 180-220 g. (Charles River Laboratories, Inc.; Wilmington, Mass.) were used in this procedure. A crude synaptosomal fraction of rat corpus striatum (for 5HT and DA uptake) or hypothalmus (for NE uptake) tissue was prepared by homogenizing tissue (25 ml./g. wet) in ice-cold 0.32M sucrose containing 1 mg./ml. glucose, 0.0001M EDTA and tris(hydroxymethyl)aminomethane to pH 7.4. The homogenate was centrifuged at 1000 × g for 10 min. at 0°-4° C., the pellet discarded and the supernatant centrifuged at 17,000 × g for 20 min. at 0°-4° C. The resulting pellet was resuspended in the ice-cold 0.32M sucrose pH 7.4 solution at 10 ml./g. original tissue (wet) for corpus striatum and 5 ml./g. original tissue (wet) for hypothalmus. […] After incubation, the mixtures were filtered through 0.45 micron Millipore filters and the filters washed with the incubation buffer. […] Uptake was calculated as picomoles 5HT, DA or NE per mg. protein (protein was determined by measurement with Folin phenol reagent).

[3] = tested on: Synaptosomal Uptake of Serotonin (5HT), rat corpus striatum; test: Blockade of synaptosomal uptake of serotonin (5HT) in vitro; format: biochemical, rat (Sprague-Dawley CD); details: 5HT uptake, Examples 26-49
Description: as §1

[4] = tested on: Synaptosomal Uptake of Dopamine (DA), rat corpus striatum; test: Blockade of synaptosomal uptake of dopamine (DA) in vitro; format: biochemical, rat (Sprague-Dawley CD)
Description: as §1

[5] = tested on: 5-hydroxytryptophan-induced tremors in mice; test: Potentiation of 5-hydroxytryptophan-induced behavioral symptoms (tremors) in vivo; set-up: species or system mouse (Swiss-Webster CD); details: Mus musculus
Description: The mice were rated for the presence of this symptom by a "blinded observer" at 10-20 min. after 5HTP treatment.

uptake of serotonin = details: background; cited from earlier work
[6] = tested on: synaptosomal norepinephrine uptake; details: prior art; cited from earlier work
[7] = read-out: MPE50, footnoted no observed effect on immobility
[8] = po, read-out: ED50 (tremors), no observed tremors
[9] = Examples 71-77, read-out: MPE50
[10] = po, 1 h, read-out: ED50 (tremors)
[11] = mice, oral, read-out: ED50 (tremors), no observed tremors
[12] = 1 h, mice, oral, 100 mg./kg. i.p. 5HTP one hour later, read-out: ED50 (tremors)

Row | SMILES | IC50 ([2]; Examples 26-49) | IC50 [3] | IC50 ([4]; Examples 26-49) | further results
1 | CN[C@H]1CC[C@@H](c2ccccc2)c2ccccc21 (relative stereo) [Comparative Example, Cis(1S) (1R)N--methyl-4-phenyl-1,2,3,4-tetrahydro-1-naphthalenamin hydrochloride, reference compound] | 1.9 µM | 3.5 µM | 5.1 µM | ED50 [1, 7]: > 32 mg/kg; ED50 [5, 8]: > 32 mg/kg
2 | CN[C@H]1CC[C@@H](c2ccc(Cl)c(Cl)c2)c2ccccc21 (relative stereo) [Example 1, Cis-(1S)(1R)-N-methyl-4-(3,4-dichlorophenyl)-1,2,3,4-tetrahydro-1-naphthalenamine Hvdrochloride] |  |  |  | ED50 [1, 9]: 4.5 mg/kg; ED50 [5, 10]: 3.2 to 5.6 mg/kg
3 | CN[C@@H]1CC[C@H](c2ccc(Cl)cc2)c2ccccc21.Cl (relative stereo) [Example 4, Cis-N-methyl-4-(4-chlorophenyl)-1,2,3,4-tetrahydro-1-naphthalenamine Hydrochloride] |  |  |  | ED50 [5, 10]: 10 to 32 mg/kg
4 | CN[C@@H]1CC[C@H](c2ccc(Cl)cc2)c2ccccc21.Cl (relative stereo) [Example 5, Cis-N-methyl-4-(4-chlorophenyl)-1,2,3,4-tetrahydro-1-naphthalenamine Hydrochloride] |  |  |  | IC50 ([2]; Examples 26-49, Hydrochloride): 5 µM; ED50 [5, 11]: > 10 mg/kg
5 | CN[C@@H]1CC[C@H](c2ccc(Cl)cc2)c2ccccc21 (relative stereo) [Example 6, Cis-N-methyl-4-(4-chlorophenyl)-1,2,3,4-tetrahydro-1-naphthalenamine Hydrochloride] |  |  |  | IC50 ([2]; Examples 26-49, Hydrochloride): 1.2 µM; IC50 ([4]; Examples 26-49, Hydrochloride): 1.5 µM
6 | CN[C@H]1CC[C@@H](c2ccc(F)cc2)c2ccccc21 (relative stereo) [Example 7, Cis-(1S)(1R)-N-methyl-4-(4-fluorophenyl)-1,2,3,4-tetrahydro-1-naphthalenamine Hydrochloride] | 2.3 µM |  | 4.7 µM | ED50 [1, 9]: 138 mg/kg; ED50 [5, 8]: > 32 mg/kg
7 | CN[C@H]1CC[C@@H](c2ccc(C(F)(F)F)cc2)c2ccccc21 (relative stereo) [Example 8] | 9.8 µM | 0.82 µM | 7.8 µM | ED50 [5, 12]: 10 to 32 mg/kg
8 | CN[C@@H]1CC[C@H](c2cccc(C(F)(F)F)c2)c2ccccc21 (relative stereo) [Example 11, Cis-N-methyl-4-(3-trifluoromethyl-phenyl)-1,2,3,4-tetrahydro-1-naphthalenamine] | 2.5 µM | 0.25 µM | 2.5 µM | % MPE ([1]; 32.0 mg./kg. subcutaneous): 45%; % MPE ([1]; 56.0 mg./kg. subcutaneous, apparent overdosage): 10%; ED50 [1, 9]: 42 mg/kg; ED50 [5, 10]: 10 to 32 mg/kg
9 | CN[C@@H]1CC[C@H](c2ccc(Cl)c(C(F)(F)F)c2)c2ccccc21 (relative stereo) [Example 12, Cis-N-methyl-4-(3-trifluoromethyl-4-chlorophenyl)-1,2,3,4-tetrahydro-1-naphthalenamine] |  |  | 1.5 µM | ED50 [5, 12]: 1 to 3.2 mg/kg
10 | CN[C@H]1CC[C@@H](c2ccc(Cl)cc2)c2ccc(Cl)cc21 (relative stereo) [Example 15, Cis-(1S)(1R)-N-methyl-4-(4-chlorophenyl)-7-chloro-1,2,3,4-tetrahydro-1-naphthalenamine Hydrochloride] | 2.2 µM | 0.3 µM | 1.3 µM | 
11 | CN[C@H]1CC[C@@H](c2ccc(Br)cc2)c2ccccc21 (relative stereo) [Example 16, Cis-(1S)(1R)-N-methyl-4-(4-bromophenyl)-1,2,3,4-tetrahydro-1-naphthalenamine Hydrochloride] | 1.4 µM | 0.19 µM | 1.6 µM | 
12 | CN[C@H]1CC[C@@H](c2ccc(OC)cc2)c2ccccc21 (relative stereo) [Example 17, Cis-(1S)(1R)-N-methyl-4-(4-methoxyphenyl)-1,2,3,4-tetrahydro-1-naphthalenamine Hydrochloride] | 3 µM |  | 4.2 µM | 
13 | CN[C@H]1CC[C@@H](c2ccccc2OC)c2ccccc21 (relative stereo) [Example 18] | 2.3 µM | 4.2 µM | 11 µM | ED50 [1, 9]: > 32 mg/kg; ED50 [5, 11]: > 32 mg/kg
14 | CN[C@H]1CC[C@@H](c2cccc(OC)c2)c2ccccc21 (relative stereo) [Example 19] | 1.4 µM | 7.6 µM | 5 µM | 
15 | CN[C@H]1CC[C@@H](c2ccc(Cl)cc2Cl)c2ccccc21 (relative stereo) [Example 20, Cis-(1S)(1R)-N-methyl-4-(2,4-dichlorophenyl)-1,2,3,4-tetrahydro-1-naphthalenamine Hydrochloride] | 0.31 µM |  | 1.7 µM | 
16 | CN[C@H]1CC[C@@H](c2ccc(Cl)cc2)c2ccc(OC)cc21 (relative stereo) [Example 21, Cis-(1S) (1R)-N-methyl-4-(4-chlorophenyl)-7-methoxy-1,2,3,4-tetrahydro-1-naphthalenamine Hydrochloride] | 0.47 µM | 0.19 µM | 0.44 µM | 
17 | CN(C)[C@H]1CC[C@@H](c2cccc(C(F)(F)F)c2)c2ccccc21 (relative stereo) [Example 22, Cis-(1S)(1R)-N,N-dimethyl-4-(3-trifluoromethylphenyl)-1,2,3,4-tetrahydro-1-naphthalenamine Maleate] | 0.89 µM | 0.19 µM | 7 µM | ED50 [1, 7]: > 56 mg/kg; ED50 [5, 10]: 3.2 to 10 mg/kg
18 | CN(C)[C@H]1CC[C@@H](c2ccc(C(F)(F)F)cc2)c2ccccc21 (relative stereo) [Example 23] | 14 µM |  | 12 µM | ED50 [5, 10]: 32 to 56 mg/kg
19 | CN(C)[C@@H]1CC[C@H](c2ccc(Cl)cc2)c2ccccc21 (relative stereo) [Example 24, Cis-N,N-dimethyl-4-(4-chlorophenyl)-1,2,3,4-tetrahydro-1-naphthalenamine] | 1.2 µM |  | 5.6 µM | 
20 | CN[C@H]1CC[C@@H](c2ccc(Cl)c(Cl)c2)c2ccccc21.Cl [Example 2, Cis-(1S)-N-methyl-4-(3,4-dichlorophenyl)-1,2,3,4-tetrahydro-1-naphthalenamine Hydrochloride] |  |  |  | % MPE ([1]; 0.10 mg./kg. subcutaneous): 7.9%; % MPE ([1]; 0.32 mg./kg. subcutaneous): 24%; % MPE ([1]; 1.00 mg./kg. subcutaneous): 17%; % MPE ([1]; 3.20 mg./kg. subcutaneous): 41%; % MPE ([1]; 10.0 mg./kg. subcutaneous): 57%; % MPE ([1]; 17.8 mg./kg. subcutaneous): 57%; % MPE ([1]; 32.0 mg./kg. subcutaneous): 66%
21 | CN[C@H]1CC[C@@H](c2ccc(C(F)(F)F)cc2)c2ccccc21 [Example 9] | 9.4 µM |  | 6.4 µM | ED50 [5, 12]: < 32 mg/kg
22 | CN[C@@H]1CC[C@H](c2ccc(C(F)(F)F)cc2)c2ccccc21 [Example 10] | 12 µM | 2.2 µM | 5.6 µM | ED50 [5, 11]: > 32 mg/kg
23 | CN[C@H]1CC[C@@H](c2ccc(Cl)c(C(F)(F)F)c2)c2ccccc21 [Example 13] | 3.6 µM |  | 6.8 µM | ED50 [5, 10]: 3.2 to 10 mg/kg
24 | CN[C@@H]1CC[C@H](c2ccc(Cl)c(C(F)(F)F)c2)c2ccccc21 [Example 14] | 2.4 µM |  | 0.55 µM | ED50 [5, 11]: > 32 mg/kg
25 | COCCCC/C(=N\OCCN)c1ccc(C(F)(F)F)cc1 [fluvoxamine] |  |  |  | serotonin uptake blockade compared to norepinephrine blockade (in words) (uptake of serotonin): selectively block the uptake of serotonin
26 | CN[C@@H]1CC[C@@H](c2ccccc2)c2ccccc21 [trans-(1R)-N-methyl-4-phenyl-1,2,3,4-tetrahydro-1-naphthalenamine] |  |  |  | synaptosomal norepinephrine uptake blocking activity (in words) [6]: excellent
27 | CN(C)C/C=C(/c1ccc(Br)cc1)c1cccnc1 [zimelidine] |  |  |  | serotonin uptake blockade compared to norepinephrine blockade (in words) (uptake of serotonin): selectively block the uptake of serotonin
